Drawing on patent US20230019236A1, “PROTEIN TYROSINE PHOSPHATASE INHIBITORS AND METHODS OF USE THEREOF” (Calico Life Sciences LLC, priority 2019, published 2023), this text covers IC50 for 31 compounds.

pIC50: −log10 of the molar value. Bounds are passed on as bounds.

The experiment deals with T1, His tagged full-length PTP1B protein (Homo sapiens, UniProt P18031).
T1 construct: made in house
T1 sequence (P18031 with tags, fused parts or gaps): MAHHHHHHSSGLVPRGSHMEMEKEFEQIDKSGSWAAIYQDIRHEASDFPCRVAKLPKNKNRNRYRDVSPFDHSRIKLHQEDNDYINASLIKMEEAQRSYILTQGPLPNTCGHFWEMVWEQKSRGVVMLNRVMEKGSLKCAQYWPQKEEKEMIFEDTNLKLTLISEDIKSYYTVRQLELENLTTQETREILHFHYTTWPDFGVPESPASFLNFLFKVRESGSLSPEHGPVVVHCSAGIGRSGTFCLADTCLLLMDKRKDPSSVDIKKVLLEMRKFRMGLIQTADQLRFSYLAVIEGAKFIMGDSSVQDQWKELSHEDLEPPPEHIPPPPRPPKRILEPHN
Description: Mobility Shift Assay (MSA) used to determine potency of PTP1B inhibitors. The format is biochemical. To be noted: Table 2. The method, then: The enzymatic assay used to determine activity is a mobility shift assay using a LabChip EZ Reader by Caliper Life Sciences. The enzymatic reaction was carried out in assay buffer (50 mM HEPES pH 7.5, 1 mM EGTA, 10 mM EDTA, 0.01% Tween® 20, and 2 mM DTT). […] The enzyme (at 0.5 nM) was incubated with compound for 10 minutes at room temperature. […] The % inhibition was then used to calculate the IC50 values.
As a reminder, the pIC50 is the negative decadic logarithm of the IC50, by convention in mol/L. In the case of `O=C1CN(c2c(O)cc3ccc(OCCC(F)(F)F)cc3c2F)S(=O)(=O)N1` [Compound 180, 5-[1-fluoro-3-hydroxy-7-(3,3,3-trifluoropropoxy)naphthalen-2-yl]-1λ^6,2,5-thiadiazolidine-1,1,3-trione], the pIC50 is 7.00 to 8.00. In the case of `O=C1CN(c2c(O)cc3ccc(C4CNC4)cc3c2F)S(=O)(=O)N1` [Compound 226, 5-[7-(azetidin-3-yl)-1-fluoro-3-hydroxynaphthalen-2-yl]-1λ^6,2,5-thiadiazolidine-1,1,3-trione], the pIC50 was 7.00 to 8.00. As for `O=C1CN(c2c(O)cc3ccc(NCCC4CC4)cc3c2F)S(=O)(=O)N1` [Compound 224, 5-{7-[(2-cyclopropylethyl)amino]-1-fluoro-3-hydroxynaphthalen-2-yl}-1λ^6,2,5-thiadiazolidine-1,1,3-trione], the pIC50 is 8.00 to 9.00.

On to `CNC(=O)CCCOc1ccc2cc(O)c(N3CC(=O)NS3(=O)=O)c(F)c2c1` [Compound 269, 4-{[8-fluoro-6-hydroxy-7-(1,1,4-trioxo-1λ^6,2,5-thiadiazolidin-2-yl)naphthalen-2-yl]oxy}—N-methylbutanamide], for which the pIC50 is 8.00 to 9.00.

On to `COc1ccc2cc(O)c(N3CC(=O)NS3(=O)=O)c(F)c2c1Cl` [Compound 234, 5-(8-chloro-1-fluoro-3-hydroxy-7-methoxynaphthalen-2-yl)-1λ^6,2,5-thiadiazolidine-1,1,3-trione], for which the pIC50 is 7.00 to 8.00. Consider `O=C1CN(c2c(O)cc3ccc(NCCc4ccccc4)cc3c2F)S(=O)(=O)N1` [Compound 164, 5-{1-fluoro-3-hydroxy-7-[(2-phenylethyl)amino]naphthalen-2-yl}-1λ^6,2,5-thiadiazolidine-1,1,3-trione], for which the pIC50 was under 7.00. Consider `CCNC(=O)NCCOc1ccc2cc(O)c(N3CC(=O)NS3(=O)=O)c(F)c2c1` [Compound 270, N-ethyl-N′-(2-{[8-fluoro-6-hydroxy-7-(1,1,4-trioxo-1λ^6,2,5-thiadiazolidin-2-yl)naphthalen-2-yl]oxy}ethyl)urea], for which the pIC50 is 8.00 to 9.00. Next, `O=C1CN(c2c(O)cc3ccc(/C=C/C4CC4)cc3c2F)S(=O)(=O)N1` [Compound 239, 5-{7-[(E)-2-cyclopropylethenyl]-1-fluoro-3-hydroxynaphthalen-2-yl}-1λ^6,2,5-thiadiazolidine-1,1,3-trione]: 7.00 to 8.00; `CC(C)Oc1ccc2cc(O)c(N3CC(=O)NS3(=O)=O)c(F)c2c1` [Compound 279, 5-{1-fluoro-3-hydroxy-7-[(propan-2-yl)oxy]naphthalen-2-yl}-1λ^6,2,5-thiadiazolidine-1,1,3-trione]: under 7.00. In the case of `N#Cc1c[nH]c(-c2ccc3cc(O)c(N4CC(=O)NS4(=O)=O)c(F)c3c2)n1` [Compound 321, 2-[8-fluoro-6-hydroxy-7-(1,1,4-trioxo-1λ^6,2,5-thiadiazolidin-2-yl)naphthalen-2-yl]-1H-imidazole-4-carbonitrile], the pIC50 was 8.00 to 9.00.

As to `O=C1CN(c2c(O)cc3ccc(OC4CC4)cc3c2F)S(=O)(=O)N1` [Compound 223, 5-[7-(cyclopropyloxy)-1-fluoro-3-hydroxynaphthalen-2-yl]-1λ^6,2,5-thiadiazolidine-1,1,3-trione], the pIC50 was 8.00 to 9.00.

Regarding `O=C1CN(c2c(O)cc3ccc(CC4CCN(CC(F)(F)F)CC4)cc3c2F)S(=O)(=O)N1` [Compound 252, 5-(1-fluoro-3-hydroxy-7-{[1-(2,2,2-trifluoroethyl)piperidin-4-yl]methyl}naphthalen-2-yl)-1λ^6,2,5-thiadiazolidine-1,1,3-trione], the pIC50 was 8.00 to 9.00.

For the compound `O=C1CN(c2c(O)cc3ccc(OCC(=O)N4CCCC4)cc3c2F)S(=O)(=O)N1` [Compound 283, 5-{1-fluoro-3-hydroxy-7-[2-oxo-2-(pyrrolidin-1-yl)ethoxy]naphthalen-2-yl}-1λ^6,2,5-thiadiazolidine-1,1,3-trione], the pIC50 is 7.00 to 8.00. As to `CNCCCc1ccc2cc(O)c(N3CC(=O)NS3(=O)=O)c(F)c2c1` [Compound 139, 5-{1-fluoro-3-hydroxy-7-[3-(methylamino)propyl]naphthalen-2-yl}-1λ^6,2,5-thiadiazolidine-1,1,3-trione], the pIC50 was 7.00 to 8.00.

As for `O=C1CN(c2c(O)cc3ccc(C4CCS(=O)(=O)CC4)cc3c2F)S(=O)(=O)N1` [Compound 248, 5-[7-(1,1-dioxo-1λ^6-thian-4-yl)-1-fluoro-3-hydroxynaphthalen-2-yl]-1λ^6,2,5-thiadiazolidine-1,1,3-trione], the pIC50 is under 7.00. The result for `CCC(=O)CCOc1ccc2cc(O)c(N3CC(=O)NS3(=O)=O)c(F)c2c1` [Compound 155, 5-{1-fluoro-3-hydroxy-7-[(3-oxopentyl)oxy]naphthalen-2-yl}-1λ^6,2,5-thiadiazolidine-1,1,3-trione] reads 8.00 to 9.00.

On to `O=C1CN(c2c(O)cc3ccc(OCCNC4CC4)cc3c2F)S(=O)(=O)N1` [Compound 142, 5-{7-[2-(cyclopropylamino)ethoxy]-1-fluoro-3-hydroxynaphthalen-2-yl}-1λ^6,2,5-thiadiazolidine-1,1,3-trione], for which the pIC50 was 7.00 to 8.00.

For `CC(C)(C#N)CCOc1ccc2cc(O)c(N3CC(=O)NS3(=O)=O)c(F)c2c1` [Compound 120, 4-{[8-fluoro-6-hydroxy-7-(1,1,4-trioxo-1λ^6,2,5-thiadiazolidin-2-yl)naphthalen-2-yl]oxy}-2,2-dimethylbutanenitrile], the pIC50 is over 9.00.

As to `CCN(CC)C(=O)COc1ccc2cc(O)c(N3CC(=O)NS3(=O)=O)c(F)c2c1` [Compound 282, N,N-diethyl-2-{[8-fluoro-6-hydroxy-7-(1,1,4-trioxo-1λ^6,2,5-thiadiazolidin-2-yl)naphthalen-2-yl]oxy}acetamide], the pIC50 was 7.00 to 8.00. In the case of `CNCC(C)(C)CCOc1ccc2cc(O)c(N3CC(=O)NS3(=O)=O)c(F)c2c1` [Compound 163, 5-{7-[3,3-dimethyl-4-(methylamino)butoxy]-1-fluoro-3-hydroxynaphthalen-2-yl}-1λ^6,2,5-thiadiazolidine-1,1,3-trione], the pIC50 was under 7.00. The result for `O=C1CN(c2c(O)cc3ccc(CCC4CC4)cc3c2F)S(=O)(=O)N1` [Compound 209, 5-[7-(2-cyclopropylethyl)-1-fluoro-3-hydroxynaphthalen-2-yl]-1λ^6,2,5-thiadiazolidine-1,1,3-trione] reads 7.00 to 8.00; that for `COCCS(=O)(=O)N1CC=C(c2ccc3cc(O)c(N4CC(=O)NS4(=O)=O)c(F)c3c2)C1` [Compound 286, 5-{1-fluoro-3-hydroxy-7-[1-(2-methoxyethanesulfonyl)-2,5-dihydro-1H-pyrrol-3-yl]naphthalen-2-yl}-1λ^6,2,5-thiadiazolidine-1,1,3-trione], over 9.00.

For the compound `CC(C)(CN)CCOc1ccc2cc(O)c(N3CC(=O)NS3(=O)=O)c(F)c2c1` [Compound 176, 5-[7-(4-amino-3,3-dimethylbutoxy)-1-fluoro-3-hydroxynaphthalen-2-yl]-1λ^6,2,5-thiadiazolidine-1,1,3-trione], the pIC50 was 8.00 to 9.00. For the compound `O=C1CN(c2c(O)cc3ccc(C4CN(S(=O)(=O)C5CC5)C4)cc3c2F)S(=O)(=O)N1` [Compound 206, 5-{7-[1-(cyclopropanesulfonyl)azetidin-3-yl]-1-fluoro-3-hydroxynaphthalen-2-yl}-1λ^6,2,5-thiadiazolidine-1,1,3-trione], the pIC50 is 8.00 to 9.00. `O=C(O)CNc1ccc2cc(O)c(N3CC(=O)NS3(=O)=O)c(F)c2c1` [Compound 280, {[8-fluoro-6-hydroxy-7-(1,1,4-trioxo-1λ^6,2,5-thiadiazolidin-2-yl)naphthalen-2-yl]amino}acetic acid]: the pIC50 is under 7.00.

On to `CP(C)(=O)c1ccc(-c2ccc3cc(O)c(N4CC(=O)NS4(=O)=O)c(F)c3c2)s1` [Compound 141, 5-{7-[5-(dimethylphosphoryl)thiophen-2-yl]-1-fluoro-3-hydroxynaphthalen-2-yl}-1λ^6,2,5-thiadiazolidine-1,1,3-trione], for which the pIC50 was 8.00 to 9.00.

Turning to `CC(C)CCNc1ccc2cc(O)c(N3CC(=O)NS3(=O)=O)c(F)c2c1` [Compound 200, 5-{1-fluoro-3-hydroxy-7-[(3-methylbutyl)amino]naphthalen-2-yl}-1λ^6,2,5-thiadiazolidine-1,1,3-trione], the pIC50 was over 9.00. Next, `O=C1CN(c2c(O)cc3ccc(OCCC4CC4)cc3c2F)S(=O)(=O)N1` [Compound 211, 5-[7-(2-cyclopropylethoxy)-1-fluoro-3-hydroxynaphthalen-2-yl]-1λ^6,2,5-thiadiazolidine-1,1,3-trione]: over 9.00. Next, `O=C1CN(c2c(O)cc3ccc(OCC(F)(F)F)cc3c2F)S(=O)(=O)N1` [Compound 197, 5-[1-fluoro-3-hydroxy-7-(2,2,2-trifluoroethoxy)naphthalen-2-yl]-1λ^6,2,5-thiadiazolidine-1,1,3-trione]: under 7.00; `O=C1CN(c2c(O)cc3ccc(OCCCn4cccn4)cc3c2F)S(=O)(=O)N1` [Compound 183, 5-{1-fluoro-3-hydroxy-7-[3-(1H-pyrazol-1-yl)propoxy]naphthalen-2-yl}-1λ^6,2,5-thiadiazolidine-1,1,3-trione]: 8.00 to 9.00. As to `CC(C)OCCOc1ccc2cc(O)c(N3CC(=O)NS3(=O)=O)c(F)c2c1` [Compound 215, 5-(1-fluoro-3-hydroxy-7-{2-[(propan-2-yl)oxy]ethoxy}naphthalen-2-yl)-1λ^6,2,5-thiadiazolidine-1,1,3-trione], the negative logarithm of the IC50 (pIC50) was 8.00 to 9.00.
